Assay results reported in PMC6895199, “A new antiviral scaffold for human norovirus identified with computer-aided approaches on the viral polymerase” (Scientific Reports, 2019).

Assays:
[1] = tested on: MNV; test: MNV CPE reduction assay (MTS) in RAW 264.7 cells; type: cell-based, mouse norovirus (MNV-1.CW1); settings: Norovirus, RAW264.7, in Mus musculus
Protocol: The newly prepared compounds 2–7 and 34–35 were evaluated for their antiviral effect against the genogroup V mouse norovirus (MNV) using the mouse macrophage cell line RAW264.7. This assay evaluates the ability of the compounds to protect infected cells from the virus-induced cytopathic effect, thus being suitable to identify inhibition of virus replication at every step of the virus life cycle, and representing a robust cellular assay available for the rapid evaluation of potential norovirus inhibitors. Compounds identified using MNV have shown effects against HuNoV in vitro and in vivo, as in the case of nucleoside RdRp inhibitor 2′-C-methylcytidine (2CMC)[34]–[36]. Unfortunately, despite not presenting the aqueous solubility issues we had previously encountered for 1[29], no significant antiviral effect could be observed in this assay for the new compounds up to the maximum concentration tested. The new structural modifications, despite retaining inhibition of the RdRp in an isolated enzyme activity assay and showing no cytotoxic effects at the test concentrations in the MNV antiviral assay (Supplementary Table S1), are correlated with a lack of antiviral activity. As these new structures present the same limitation of most non-nucleoside HuNoV polymerase inhibitors reported so far[22], we were prompted to apply a different computer-aided strategy to further modify the scaffold of 1, with the aim to achieve an antiviral effect in cellular systems. […]
Since the main scope of this work was to find new norovirus inhibitors which show antiviral effects against both the HuNoV RdRp and in norovirus-infected cells, priority was given to the evaluation of most of the new molecules for their antiviral activity against MNV in infected RAW cells. The nucleoside 2′-C-methylcytidine was used as positive control. The test compounds were evaluated at eight different concentrations (range 0.6–100 µM) and their ability to reduce the virus-induced cytopathic effect was assessed.
Cells and virus: MNV (virus strain MNV-1.CW1) was propagated in RAW 264.7 cells grown in DMEM (Life Technologies, Gent, Belgium) supplemented with 10% or 2% FBS, 2 mM L-glutamine, 20 mM HEPES, 0.075 g/L sodium bicarbonate, 1 mM sodium pyruvate, 100 U penicillin/mL and 100 µg/mL streptomycin at 37 °C in a humidified atmosphere of 5% CO2. The human norovirus GI.1 replicon harboring gastric tumor-1 cell line (HGT-NV) (kindly provided by Dr. Ian Goodfellow, University of Cambridge) was maintained in DMEM supplemented with 10% FBS, 2mM L-glutamine, 0.075 g/L sodium bicarbonate and 1.0 mg/ml of Geneticin (G418; Life Technologies), at 37 °C in a humidified atmosphere of 5% CO2[34].
Antiviral assay with MNV: The antiviral activity of the Compounds was determined using an MTS [3-(4,5-dimethylthiazol-2-yl)-5-(3-carboxymethoxyphenyl)-2-(4-sulfophenyl)-2H-tetrazolium]-based cytopathic effect (CPE) reduction assay. […] Then, a MTS-phenazinemethosulfate (MTS/PMS) stock solution [(2 mg/mL MTS (Promega, Leiden, The Netherlands) and 46 µg/mL PMS (Sigma–Aldrich, Bornem, Belgium) in PBS at pH 6–6.5)] was diluted 1/20 in MEM (Life Technologies, Gent, Belgium) and 75 µL were added to each well. After 2 h, the optical density (OD) was read at 498 nm. The %CPE reduction was calculated as [(ODtreated)MNV − ODVC]/[ODCC − ODVC] × 100, where ODCC represents the OD of the uninfected untreated cells, whereas ODVC and (ODtreated)MNV represent the OD of infected untreated cells and virus-infected cells treated with a compound concentration, respectively. The 50% effective concentration (EC50) was defined as the compound concentration that protected 50% of the cells from virus-induced CPE[34].

[2] = tested on: HuNoV (GII.4) RdRp; test: Counter-screen gel-shift assay of primed elongation activity (PE44-NoV template); type: biochemical, human norovirus; settings: fixed concentration of 100 μM
Protocol: To further confirm RdRp inhibition and exclude any potential false positives from the first fluorescence RdRp assay, the eight molecules were then assessed using a gel-shift enzyme activity assay at a fixed concentration of 100 μM, following a procedure previously adopted by our research group.
Figure 5 A counter-screen gel-shift assay was used to confirm HuNoV (GII.4) RdRp inhibitory activity of compounds 2, 3, 34 and 35 (A), 4, 5, 6 (B) and 7 (C). The eight compounds were examined for inhibition of primed elongation activity. PE44-NoV RNA templates (32 nucleotides) were extended (44 nucleotides) by the RdRp in the absence of any test compounds (0.5% DMSO [vol/vol] negative control) or with test compounds at a fixed concentration of 100 μM. […] Full-length gels are presented in Supplementary Fig. S3.
(§1) Fluorescent RdRp activity assays were carried out as previously described[12],[29]. Briefly, RdRp activity was quantified by monitoring the formation of double-stranded RNA (dsRNA) from a single stranded homopolymeric template, poly(C) (Sigma Aldrich), using the fluorescent dye PicoGreen (Life Technologies, Carlsbad, CA, USA). RdRp assays were performed in 384-well plates, and each reaction mixture contained 400 ng enzyme, 45 μM GTP, 10 ng/μL poly(C) RNA, 2.5 mM MnCl2, 5 mM dithiothreitol, (DTT), 0.01% bovine serum albumin (BSA), and 0.005% Tween 20 in 20 mM Tris-HCl, pH 7.5, with a final reaction volume of 25 μL. The PPNDS and compound 1 were used as a positive controls. RdRps were incubated for 10 mins at 30 °C in the presence of the test compounds or the compound vehicle DMSO (0.5% vol/vol) before addition into the reaction mixture, which was then allowed to run 15 min at 30 °C then terminated with 10 mM EDTA, followed by PicoGreen staining and dsRNA quantitation. GraphPad Prism V6.05 (La Jolla, CA, USA) was used to plot the IC50 values. A secondary gel-based polymerase activity assay was used as a counter-screen as described below, to exclude the possibility of RdRp activity enhancement. Primed elongation activity was examined in a gel-based assay as previously described[12],[29] using the RNA template (PE44-NoV). Gels were imaged using BioRad (Hercules, CA, U.SA) Geldoc Universal Hood II, running BioRad Image Lab software, V4.1, build 16.

[3] = target: HuNoV (GII.4) RdRp (Norovirus Hu/GII.4/Sydney/NSW0514/2012/AU, UniProt K4L8Z7); test: Quantitative fluorescent RdRp activity assay (PicoGreen, poly(C) template); type: biochemical, human norovirus Sydney 2012
Protocol: The newly synthesised compounds, including the carboxylate ester derivatives 34–35 and 7 from the Core Hopping approach, were evaluated for their enzymatic inhibition of human norovirus Sydney 2012 (HuNoV (GII.4)) RdRp activity in vitro, using a quantitative fluorescent assay. Compounds were tested at six different concentrations (concentration range examined: 0.1–100 µM) and compared to the relative activity of mock treated samples containing the vehicle only (0.5% DMSO [vol/vol]). PPNDS [Pyridoxal-5′-phosphate-6-(2′-naphthylazo-6′-nitro-4′,8′-disulfonate) tetrasodium salt], a previously reported potent inhibitor of NoV RdRp activity, and 1 were used as positive controls. Dose-dependent inhibitory response curves were used to establish IC50 values for the eight test compounds, as reported in Table 1 (see also Supplementary Fig. S1).
The newly prepared compounds 48–60 were initially evaluated against norovirus Sydney 2012 RdRp activity in vitro using a quantitative fluorescent assay. Compounds were tested at a fixed concentration of 20 µM and compared to the relative activity of mock treated samples. PPNDS and 1 were used as positive controls. […] These two rings are structural features present in 1 and in one of its derivatives we have previously reported. […] From these observations, the thiophene ring appears not to influence inhibitory activity. Derivatives in which the central core of 48 has been used to link the two terminal hydrophobic rings of 1 or of its derivatives we have previously reported[25] (55, 57, 58) appear to retain the RdRp inhibitory activity found for 48 (~20% at 20 µM). A similar effect is obtained when a sulfonyl group, as in our hit 1, is used to link ring 2, regardless if it is a thiazole (59) or an unsubstituted phenyl ring (60), to the rest of the molecule. […] Overall, even if showing a reduced biochemical activity in comparison with 1, some of the new derivatives can be considered as modest HuNoV RdRp inhibitors at 20 µM.
as §1

[4] = Cytotoxicity by the MTS method on uninfected cells; type: cell-based; settings: mouse, uninfected RAW 264.7 cells
Protocol: Cytotoxicity: The cytotoxicity of the Compounds was evaluated by the MTS method, by exposing uninfected cells to the same concentrations of compounds for 3 days. The %cell viability was calculated as (ODtreated/ODCC) × 100, where ODCC is the OD of uninfected untreated cells and ODtreated are uninfected cells treated with compound. The CC50 was defined as the compound concentration that reduces the number of viable cells by 50%[34].

[5] = Crystal formation seen in the cell-based assays; type: physicochemical; settings: MNV CPE reduction assay, Supplementary Table S1
[6] = Supplementary Table S1, at least two independent experiments

Row | SMILES | EC50 [1, 6] | inhibition of primed elongation activity (gel-shift) [2] | inhibition at 100 µM ([3]; 100 µM, read-out: inhibition of RdRp activity at the maximum concentration tested) | CC50 at 3 days [4, 6] | crystals noted in the assay [5] | IC50 ([3]; HuNoV (GII.4) RdRp activity, six concentrations 0.1–100 µM, mean ± SD) | EC50 ([1]; Table 2, RAW 264.7, range 0.6–100 µM, at least three independent experiments) | inhibition at 20 µM ([3]; 20 µM, read-out: inhibition of HuNoV RdRp activity at fixed concentration) | CC50 at 3 days ([4]; Table 2, at least three independent experiments)
1 | O=C(Cc1cccc(-c2ccccc2)c1)Nc1ccc(S(=O)(=O)Nc2ccccc2)cc1 [Compound 7, 2-([1,1′-biphenyl]-3-yl)-N-(4-(N-phenylsulfamoyl)phenyl)acetamide] | > 12.5 µM | did not demonstrate inhibition | 20% | 20 ± 21 µM | – | – | – | – | –
2 | CCOC(=O)c1ccc(N2NC(=O)/C(=C\c3ccc(-c4ccc(S(=O)(=O)Nc5ccccc5)cc4)o3)C2=O)cc1 [Compound 34, Ethyl(E)-4-(3,5-dioxo-4-((5-(4-(N-phenylsulfamoyl)phenyl)furan-2-yl)methylene)pyrazolidin-1-yl)benzoate] | > 100 µM | – | – | > 100 µM | crystals | 13.5 ± 5.8 µM | – | – | –
3 | O=C(NC(=S)Nc1ccc(N2CCN(C(=O)c3ccco3)CC2)cc1)c1sc2ccccc2c1Cl [Compound 53, 3-Chloro-N-((4-(4-(furan-2-carbonyl)piperazin-1-yl)phenyl)carbamothioyl)benzo[b]thiophene-2-carboxamide] | – | significant inhibition | – | – | – | – | > 100 µM | ≤ 60% | 9.4 ± 2.3 µM
